According to ChEMBL document CHEMBL1144605, “Discovery of an androgen receptor modulator pharmacophore based on 2-quinolinones” (Bioorg Med Chem Lett, 2007):

Tests used:
Androgen receptor [1] = target: T1, Androgen receptor (Homo sapiens, UniProt P10275)
T1 sequence (P10275 whole entry): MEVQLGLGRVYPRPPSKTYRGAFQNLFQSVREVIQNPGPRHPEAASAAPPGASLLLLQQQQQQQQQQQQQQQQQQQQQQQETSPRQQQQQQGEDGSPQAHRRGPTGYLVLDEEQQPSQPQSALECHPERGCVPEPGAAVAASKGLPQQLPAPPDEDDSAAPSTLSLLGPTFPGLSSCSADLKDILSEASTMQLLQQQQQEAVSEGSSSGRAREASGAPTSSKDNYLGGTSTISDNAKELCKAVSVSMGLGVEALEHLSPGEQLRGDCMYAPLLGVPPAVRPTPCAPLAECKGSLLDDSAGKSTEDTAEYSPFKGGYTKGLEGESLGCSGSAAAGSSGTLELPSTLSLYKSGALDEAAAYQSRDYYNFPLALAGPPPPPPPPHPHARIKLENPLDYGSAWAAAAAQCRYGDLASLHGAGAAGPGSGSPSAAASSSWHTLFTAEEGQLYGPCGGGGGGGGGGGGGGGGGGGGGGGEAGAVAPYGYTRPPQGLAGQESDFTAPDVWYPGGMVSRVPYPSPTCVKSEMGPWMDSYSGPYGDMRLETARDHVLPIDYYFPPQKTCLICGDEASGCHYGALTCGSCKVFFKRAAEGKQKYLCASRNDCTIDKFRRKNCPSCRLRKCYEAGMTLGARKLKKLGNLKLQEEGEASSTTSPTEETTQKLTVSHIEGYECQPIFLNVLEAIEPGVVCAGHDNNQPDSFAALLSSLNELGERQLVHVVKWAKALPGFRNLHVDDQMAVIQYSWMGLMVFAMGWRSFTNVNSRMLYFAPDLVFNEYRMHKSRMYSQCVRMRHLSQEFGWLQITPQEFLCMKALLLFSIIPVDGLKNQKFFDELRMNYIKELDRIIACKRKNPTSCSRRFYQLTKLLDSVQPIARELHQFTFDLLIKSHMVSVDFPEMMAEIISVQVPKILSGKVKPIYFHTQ
Description: Antagonist activity at human androgen receptor expressed in CV1 cells

Androgen receptor [2] = target: T1, Androgen receptor; experiment: biochemical
Description: Binding affinity to human androgen receptor expressed in CV1 cells

Androgen receptor [3] = target: T1, Androgen receptor; remark: listed apart in the source
Description: Agonist activity at human androgen receptor expressed in CV1 cells

Row | SMILES | IC50 (Androgen receptor [1]) [nM] | Ki (Androgen receptor [2]) [nM] | EC50 (Androgen receptor [3]) [nM]
1 | O=c1cc(C(F)(F)F)c2ccc(NC3CCCC3)cc2[nH]1 | 149 | 1000 | –
2 | CC1(C)C=Cc2cc3c(C(F)(F)F)cc(O)nc3cc2N1 | 27 | 73 | –
3 | CCNc1ccc2[nH]c(=O)cc(C(F)(F)F)c2c1 | 111 | – | –
4 | O=c1cc(C(F)(F)F)c2ccc(N(CC(F)(F)F)CC(F)(F)F)cc2o1 | 63 | – | 73
5 | O=c1cc(C(F)(F)F)c2ccc(NCC(F)(F)F)cc2o1 | 50 | – | –
6 | O=c1cc(C(F)(F)F)c2cc(NC3CCCC3)ccc2[nH]1 | 42 | 74 | –
7 | O=c1cc(C(F)(F)F)c2ccc(NCc3ccccc3)cc2[nH]1 | 294 | 163 | –
8 | O=c1cc(C(F)(F)F)c2ccc(NC3CCCCC3)cc2[nH]1 | 507 | 1000 | –
9 | CCC1CCc2cc3c(C(F)(F)F)cc(=O)[nH]c3cc2N1 (stereo unspecified) | 14 | 11 | –
